Results on three compounds are retold here after ChEMBL document CHEMBL1811901, “Bioactive sulfoximines: syntheses and properties of Vioxx analogs” (Bioorg Med Chem Lett, 2011).

Usually inhibition stands for the change of the read-out against control, counted positive when it falls. For orientation: IC50 means the concentration that inhibits the measured activity by half.

The target in series [1] is T1, Prostaglandin G/H synthase 1 (Homo sapiens, UniProt P23219). Briefly: Inhibition of human platelets COX1 assessed as PGE2 production using arachidonic acid as substrate at 10 uM preincubated for 15 mins measured after 15 mins by EIA.
The target in series [2] is T1, Prostaglandin G/H synthase 1. The series can be described thus: Inhibition of human platelets COX1 assessed as PGE2 production using arachidonic acid as substrate preincubated for 15 mins measured after 15 mins by EIA.
Series [3] addresses T2, Prostaglandin G/H synthase 2 (Homo sapiens, UniProt P35354).
T2 sequence (P35354 whole entry): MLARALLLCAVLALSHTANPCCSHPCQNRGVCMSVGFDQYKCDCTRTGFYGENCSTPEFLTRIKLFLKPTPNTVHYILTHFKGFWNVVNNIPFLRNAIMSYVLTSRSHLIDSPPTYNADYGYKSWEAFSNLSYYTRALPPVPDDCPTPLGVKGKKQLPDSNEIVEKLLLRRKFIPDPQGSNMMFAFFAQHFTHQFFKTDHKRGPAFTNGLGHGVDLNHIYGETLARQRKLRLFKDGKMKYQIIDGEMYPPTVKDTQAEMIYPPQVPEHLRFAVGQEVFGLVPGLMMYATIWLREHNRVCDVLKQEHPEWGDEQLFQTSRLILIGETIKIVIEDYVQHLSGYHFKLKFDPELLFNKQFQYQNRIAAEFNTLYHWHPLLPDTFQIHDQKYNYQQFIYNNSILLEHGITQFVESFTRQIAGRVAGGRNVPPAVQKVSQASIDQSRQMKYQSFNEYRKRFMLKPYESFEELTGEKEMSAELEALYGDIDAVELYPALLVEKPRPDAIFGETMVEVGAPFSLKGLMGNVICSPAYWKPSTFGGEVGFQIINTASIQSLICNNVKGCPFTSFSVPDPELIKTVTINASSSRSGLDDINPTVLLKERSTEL
The series can be described thus: Inhibition of human recombinant COX2 expressed in Sf21 cells assessed as PGE2 production using arachidonic acid as substrate preincubated for 15 mins measured after 5 mins by EIA.

Series [4] has as its target T3, hERG (KCNH2) (Homo sapiens, UniProt Q12809). Briefly: Inhibition of human ERG expressed in HEK293 cells assessed as inhibition of tail current at holding potential of -70 mV at 1 uM after 10 mins by whole-cell patch clamp method. In kind it is cell-based. The settings on record: HEK293 cells that express hERG.
Series [5] has as its target T3, hERG (KCNH2). Briefly: Inhibition of human ERG expressed in HEK293 cells assessed as inhibition of tail current at holding potential of -70 mV at 3.16 uM after 10 mins by whole-cell patch clamp method. It counts as cell-based. The settings on record: HEK293 cells that express hERG.
The target in series [6] is T3, hERG (KCNH2). Briefly: Inhibition of human ERG expressed in HEK293 cells assessed as inhibition of tail current at holding potential of -70 mV at 10 uM after 10 mins by whole-cell patch clamp method. In kind it is cell-based. To be noted: HEK293 cells that express hERG. (The patch-clamp technique gives a direct electrical read-out from membranes.)
In series [7] the target is T3, hERG (KCNH2). Briefly: Inhibition of human ERG expressed in HEK293 cells assessed as inhibition of tail current at holding potential of -70 mV at 31.6 uM after 10 mins by whole-cell patch clamp method. In kind it is cell-based. The settings on record: HEK293 cells that express hERG.
Series [8] addresses T3, hERG (KCNH2). The series can be described thus: Inhibition of human ERG expressed in HEK293 cells assessed as inhibition of tail current at holding potential of -70 mV at 100 uM after 10 mins by whole-cell patch clamp method. In kind it is cell-based. The settings on record: HEK293 cells that express hERG.
In series [9] the target is T3, hERG (KCNH2). Briefly: Inhibition of human ERG expressed in HEK293 cells assessed as inhibition of tail current at holding potential of -70 mV at 1 uM after 10 mins by whole-cell patch clamp method relative to control. To be noted: HEK293 cells that express hERG. In kind it is cell-based.
Series [10] addresses T3, hERG (KCNH2). The series can be described thus: Inhibition of human ERG expressed in HEK293 cells assessed as inhibition of tail current at holding potential of -70 mV at 3.16 uM after 10 mins by whole-cell patch clamp method relative to control. It counts as cell-based. To be noted: HEK293 cells that express hERG.

T3 sequence (Q12809 whole entry): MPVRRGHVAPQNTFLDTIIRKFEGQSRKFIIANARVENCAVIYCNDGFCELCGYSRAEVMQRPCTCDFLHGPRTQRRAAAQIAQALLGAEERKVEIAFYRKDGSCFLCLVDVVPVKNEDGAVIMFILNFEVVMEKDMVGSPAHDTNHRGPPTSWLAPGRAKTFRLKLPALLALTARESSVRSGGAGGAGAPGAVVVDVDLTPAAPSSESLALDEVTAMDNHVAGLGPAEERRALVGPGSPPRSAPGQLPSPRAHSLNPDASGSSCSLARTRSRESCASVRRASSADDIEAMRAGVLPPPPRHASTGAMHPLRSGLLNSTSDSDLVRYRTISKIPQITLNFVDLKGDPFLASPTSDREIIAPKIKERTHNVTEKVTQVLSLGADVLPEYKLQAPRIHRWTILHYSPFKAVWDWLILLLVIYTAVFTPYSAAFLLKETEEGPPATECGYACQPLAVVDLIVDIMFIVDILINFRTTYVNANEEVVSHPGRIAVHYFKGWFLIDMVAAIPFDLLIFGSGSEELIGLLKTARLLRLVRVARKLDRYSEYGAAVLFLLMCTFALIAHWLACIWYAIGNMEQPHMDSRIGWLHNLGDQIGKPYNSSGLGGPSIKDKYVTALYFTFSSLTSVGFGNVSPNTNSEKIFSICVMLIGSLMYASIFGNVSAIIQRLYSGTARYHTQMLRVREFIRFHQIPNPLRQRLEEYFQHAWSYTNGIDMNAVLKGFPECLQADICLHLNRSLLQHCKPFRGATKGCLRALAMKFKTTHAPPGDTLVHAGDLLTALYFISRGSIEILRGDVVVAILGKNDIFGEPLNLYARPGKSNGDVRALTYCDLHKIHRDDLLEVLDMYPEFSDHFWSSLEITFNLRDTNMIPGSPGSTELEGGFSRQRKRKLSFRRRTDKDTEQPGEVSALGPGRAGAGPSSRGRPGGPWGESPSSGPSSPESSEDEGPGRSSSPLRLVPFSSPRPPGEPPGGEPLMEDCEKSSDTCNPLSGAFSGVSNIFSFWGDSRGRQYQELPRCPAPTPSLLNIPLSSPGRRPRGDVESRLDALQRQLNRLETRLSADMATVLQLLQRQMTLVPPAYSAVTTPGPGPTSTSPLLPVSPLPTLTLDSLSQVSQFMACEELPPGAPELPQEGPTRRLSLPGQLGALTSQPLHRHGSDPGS
T1 sequence (P23219 whole entry): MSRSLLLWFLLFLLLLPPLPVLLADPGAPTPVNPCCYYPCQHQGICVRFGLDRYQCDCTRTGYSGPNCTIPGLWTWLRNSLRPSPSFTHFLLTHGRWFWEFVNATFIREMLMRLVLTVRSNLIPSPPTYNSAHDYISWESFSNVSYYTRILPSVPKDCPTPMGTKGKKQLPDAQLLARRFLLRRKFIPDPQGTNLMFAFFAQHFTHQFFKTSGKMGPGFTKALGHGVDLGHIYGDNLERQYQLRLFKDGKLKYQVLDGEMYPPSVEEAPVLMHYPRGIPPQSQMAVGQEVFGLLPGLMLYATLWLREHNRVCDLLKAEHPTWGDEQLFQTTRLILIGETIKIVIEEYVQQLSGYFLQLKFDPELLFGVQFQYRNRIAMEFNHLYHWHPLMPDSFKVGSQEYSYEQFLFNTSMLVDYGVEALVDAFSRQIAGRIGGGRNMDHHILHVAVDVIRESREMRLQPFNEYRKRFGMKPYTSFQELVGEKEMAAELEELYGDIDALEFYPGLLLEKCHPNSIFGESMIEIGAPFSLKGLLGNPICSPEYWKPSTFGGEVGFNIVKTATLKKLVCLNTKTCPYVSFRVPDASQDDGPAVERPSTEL

For the compound `CN=[S+](C)([O-])c1ccc(C2=C(c3ccccc3)C(=O)OC2)cc1` (stereo unspecified), the inhibition in series [1] turned out to be 10%. Also, the 50% inhibitory concentration (IC50) in series [2] was determined as 42.4 nM; in [3], 156 nM.
As for `C[S+](=N)([O-])c1ccc(C2=C(c3ccccc3)C(=O)OC2)cc1` (stereo unspecified), in series [1], the inhibition was 26%. The inhibition at 10 min, 1 µM on hERG (KCNH2) [4] was 1.7%; on hERG (KCNH2) [9], -0.1%. Moreover, at hERG (KCNH2) [5], the inhibition at 10 min, 3.16 µM worked out at 7%. For the same compound, the inhibition at 10 min, 10 µM at hERG (KCNH2) [6] worked out at 20%. Moreover, the inhibition at 10 min, 31.6 µM on hERG (KCNH2) [7] came out at 27.6%. In addition, at hERG (KCNH2) [8], the inhibition at 10 min, 100 µM amounted to 29.6%.
For the compound `CS(=O)(=O)c1ccc(C2=C(c3ccccc3)C(=O)OC2)cc1` [ROFECOXIB], at hERG (KCNH2) [4], the inhibition at 10 min, 1 µM was found to be 6.8%. Also, the inhibition at 10 min, 3.16 µM at hERG (KCNH2) [5] is 8.3%; on hERG (KCNH2) [10] it was -10.2%. Besides, the inhibition at 10 min, 10 µM on hERG (KCNH2) [6] stood at 10.4%. In addition, the inhibition at 10 min, 31.6 µM at hERG (KCNH2) [7] was determined as 19.1%. The inhibition at 10 min, 100 µM at hERG (KCNH2) [8] amounted to 27.6%.
